# Patent publication US5639729A, “Tripeptides useful in immune and CNS therapy” (Immunobiology Research Institute, Inc., priority 1993, dated 1997)
# Assays:
# ACTH secretion = assay: Actions of insulin on ACTH secretion; type: in vivo, Sprague-Dawley rats; settings: 30 minutes, fasted male rats
# Method: To determine whether a drug can modify stress responses, the stress response itself must be characterized. To accomplish this goal, adult male Sprague-Dawley rats [Charles River, Kingston, N.Y.] were treated with increasing doses of insulin [Humulin, Eli Lilly Co.] ranging from 0.05 to 5 IU/kg or saline intraperitoneally after an overnight fast. Thirty minutes after administering insulin, the animals were sacrificed by decapitation and trunk blood was collected into polypropylene tubes containing 400 μl of 10% EDTA at 4° C. The plasma was separated by centrifugation and stored at -80° C. until being used for ACTH determinations. Plasma concentrations of ACTH were determined by radioimmunoassay using antiserum [IgG Corporation, Nashville, Tenn.] and ^125 I-labelled ACTH [ICN Corporation, Costa Mesa, Calif.] as described by Nicholson et al, Clin. Chem., 30:259-265 (1984).
# [1] = tested on: insulin-induced ACTH secretion; assay: Effect of peptide on insulin-induced ACTH secretion (insulin challenge); type: in vivo, Sprague-Dawley rats; settings: insulin 0.5 IU/kg intraperitoneally, 30 minutes, rats pretreated with saline by oral gavage or s.c. injection; from 16.8±0.8 pg/ml
# Method: As mentioned above, the administration of insulin can be used as a provocative challenge test to determine how an organism responds to stress and how the response can be manipulated. It was shown in FIG. 1 that, in rats, administration of insulin causes an increase in plasma concentrations of ACTH.
# Adult male Sprague-Dawley rats were used in these experiments. After an overnight fast, the peptide or saline was administered by oral gavage or by subcutaneous injection to the experimental subjects. Doses of the peptide ranged from 0.1 to 10 mg/kg by the oral route and 0.03 to 3.0 mg/kg by the subcutaneous route. […] all animals were treated with insulin (0.5 IU/kg) and were sacrificed by decapitation 30 minutes later. As above, trunk blood was collected in polypropylene tubes containing 400 μl of 10% EDTA at 4° C. Plasma was separated by centrifugation and stored at -80° C. until being used for ACTH determinations, ACTH concentrations were determined by RIA as described by Nicholson et al, cited above, using antiserum [IgG Corporation] and ^125 I-labelled ACTH [ICN Corporation].
substance,measurement,setting,value
"insulin: insulin [Humulin, Eli Lilly Co.], used as provocative challenge to raise plasma ACTH in rats",plasma ACTH levels,ACTH secretion; insulin 0.05 IU/kg intraperitoneally,not elevated
same,plasma ACTH concentrations,ACTH secretion; insulin 0.1 IU/kg intraperitoneally,significantly greater than in vehicle treated controls
same,ACTH responses,ACTH secretion; insulin doses higher than 0.1 IU/kg up to 5 IU/kg intraperitoneally,commensuratively greater ACTH responses
same,plasma ACTH concentrations,[1],approximately 200 pg/ml
